Experimental data from patent publication US20240041976A1, “COMPOSITION AND USE” (priority 2020, published 2024).
Like-named read-outs stand apart in the source and are kept apart here. No end group written: not given here.

What was measured:
S. aureus LMG3307 = assay: AAMP assay (MIC), single components and formulation mixture; format: cell-based, Staphylococcus aureus; conditions: Staphylococcus aureus, LMG3307, 24 h; read-out: MIC, single component
Protocol: (§1) Antimicrobial activity was measured using the AAMP assay (Wiegand et al., 2008, Nat. Protoc., Vol. 3(2), p 163-175).
(§2) Three-component synergy was assessed by mixing the three components (100 μg of PenG, 50 μg of GarKS and 2.5 μg of MP1) into one well of a microtiter plate, compared with activity of individual antimicrobials on the same plate. The fractional inhibition concentration (FIC) which was used to define synergy was calculated as set forth in Example 1.

S. aureus LMG3255 = assay: as above; format: cell-based, Staphylococcus aureus
Protocol: as §1, §2

S. aureus LMG3264 = assay: as above; format: cell-based, Staphylococcus aureus
Protocol: as §1, §2

S. aureus LMG3263 = assay: as above; format: cell-based, Staphylococcus aureus
Protocol: as §1, §2

S. aureus LMG3328 = assay: as above; format: cell-based, Staphylococcus aureus; conditions: Staphylococcus aureus, LMG3328, 24 h; read-out: MIC, single component
Protocol: as §1, §2

S. aureus LMG3271 = assay: as above; format: cell-based, Staphylococcus aureus; conditions: Staphylococcus aureus, LMG3271, 24 h; read-out: MIC, single component
Protocol: as §1, §2

S. aureus LMG3258 = assay: as above; format: cell-based, Staphylococcus aureus; conditions: Staphylococcus aureus, LMG3258, 24 h; read-out: MIC, single component
Protocol: as §1, §2

S. aureus LMG3322 = assay: as above; format: cell-based, Staphylococcus aureus; conditions: Staphylococcus aureus, LMG3322, 24 h; read-out: MIC, single component
Protocol: as §1, §2

S. aureus LMG3266 = assay: as above; format: cell-based, Staphylococcus aureus
Protocol: as §1, §2

S. aureus LMG3026 = assay: as above; format: cell-based, Staphylococcus aureus; conditions: Staphylococcus aureus, LMG3026, 24 h; read-out: MIC, single component
Protocol: as §1, §2

S. aureus LMG3242 = assay: as above; format: cell-based, Staphylococcus aureus
Protocol: as §1, §2

S. aureus LMG3314 = assay: as above; format: cell-based, Staphylococcus aureus; conditions: Staphylococcus aureus, LMG3314, 24 h; read-out: MIC, single component
Protocol: as §1, §2

S. aureus LMG3265 = assay: as above; format: cell-based, Staphylococcus aureus; conditions: Staphylococcus aureus, LMG3265, 24 h; read-out: MIC, single component
Protocol: as §1, §2

[1] = system: three MRSA strains (ATCC33591-lux, USA-300 and MRSA 43484); assay: AAMP assay and checkerboard synergy, summary; format: cell-based, Staphylococcus aureus; conditions: for MIC: Staphylococcus aureus, 24 h, read-out: MIC, single antimicrobial; for synergy with GarKS: checkerboard assay
Protocol: Briefly, equal amounts of antimicrobial A were applied on microtiter plate 1 in wells A1-H1 and then diluted two-fold to wells 2-12. Similarly, equal amounts of antimicrobial B were applied on microtiter plate 2 in wells A1-A12 and diluted two-fold in wells B-H. Volumes of 50 μl of antimicrobial A from each well of microtiter plate 1 were transferred into microtiter plate 3, except for wells H1-H12. Similarly, the same volumes were transferred from microtiter plate 2 into plate 3, except for wells A1-A8. […] A 50 μl volume of pure broth was added into each well in lines H1-H12 and A1-A8 which were used to estimate MIC values of pure substances (blank).
Three-component synergy was assessed by mixing the three components (100 μg of PenG, 50 μg of GarKS and 2.5 μg of MP1) into one well of a microtiter plate, compared with activity of individual antimicrobials on the same plate.

MRSA ATCC 33591-lux = assay: AAMP assay and checkerboard synergy; format: cell-based, Staphylococcus aureus; conditions: for MIC: Staphylococcus aureus, 24 h, read-out: MIC, single antimicrobial
Protocol: as §1
(§3) Synergy testing was done with a microtiter plate checkerboard assay as previously described (Orhan et al., 2005, J. Clin. Microbiol., Vol. 43(1), p 140-143). Briefly, equal amounts of antimicrobial A were applied on microtiter plate 1 in wells A1-H1 and then diluted two-fold to wells 2-12. Similarly, equal amounts of antimicrobial B were applied on microtiter plate 2 in wells A1-A12 and diluted two-fold in wells B-H. Volumes of 50 μl of antimicrobial A from each well of microtiter plate 1 were transferred into microtiter plate 3, except for wells H1-H12. Similarly, the same volumes were transferred from microtiter plate 2 into plate 3, except for wells A1-A8. A 100 μl volume of 25 times diluted ON bacterial culture of MRSA was transferred into each well of plate 3. A 50 μl volume of pure broth was added into each well in lines H1-H12 and A1-A8 which were used to estimate MIC values of pure substances (blank).
as §2

MRSA USA-300 = assay: AAMP assay and checkerboard synergy; format: cell-based, Staphylococcus aureus; conditions: for MIC: Staphylococcus aureus, 24 h, read-out: MIC, single antimicrobial
Protocol: as §1, §3, §2

MRSA 43484 = assay: AAMP assay and checkerboard synergy; format: cell-based, Staphylococcus aureus; conditions: for MIC: Staphylococcus aureus, 24 h, read-out: MIC, single antimicrobial
Protocol: as §1, §3, §2

[2] = system: S. pseudintermedius MRSP 45; assay: microbe, parasite or virus in culture; format: cell-based, Staphylococcus pseudintermedius; conditions: for MIC: Staphylococcus pseudintermedius, read-out: MIC, single component
Protocol: as §1, §3
(§4) Antimicrobial activity was measured using the AAMP assay as described in Example 2.
(§5) Synergy testing was performed as in Example 2.

MRSA ATCC 33591 = assay: microbe, parasite or virus in culture; format: cell-based, Staphylococcus aureus; conditions: for MIC: Staphylococcus aureus, 24 h, read-out: MIC, single antimicrobial
Protocol: as §1, §3, §4, §5

[3] = Staphylococcus aureus, LMG3255, 24 h; read-out: MIC, single component
[4] = Staphylococcus aureus, LMG3264, 24 h; read-out: MIC, single component
[5] = Staphylococcus aureus, LMG3263, 24 h; read-out: MIC, single component

| Molecule | MIC (S. aureus LMG3307) [µg/mL] | MIC (S. aureus LMG3271) [µg/mL] | MIC (S. aureus LMG3322) [µg/mL] | MIC (S. aureus LMG3026) [µg/mL] | MIC (S. aureus LMG3265) [µg/mL] | MIC of the antimicrobial in comb. with GarKS (MRSA USA-300; MRSA USA-300) | MIC of the antimicrobial in comb. with GarKS (MRSA 43484; MRSA 43484) | MIC of MP1 in comb. with the labelled antimicrobial (MRSA ATCC 33591) [µg/mL] | MIC of the labelled antimicrobial in comb. with MP1 (MRSA ATCC 33591) [µg/mL] | MIC (MRSA ATCC 33591) [µg/mL] | MIC of the antimicrobial in comb. with GarKS (MRSA ATCC 33591-lux; MRSA ATCC 33591-lux) [µg/mL] | MIC ([2]; MRSP45, MRSP 45, 24 h, Table 8) [µg/mL] | further results |
| --- | --- | --- | --- | --- | --- | --- | --- | --- | --- | --- | --- | --- | --- |
| NC[C@H]1O[C@H](O[C@H]2[C@H](O)[C@@H](O[C@H]3O[C@H](CO)[C@@H](O)[C@H](N)[C@H]3O)[C@H](N)C[C@@H]2N)[C@H](O)[C@@H](O)[C@@H]1O [Kan, Kanamycin] | 64 | 64 | 64 | 16 | 64 | 32/32 μg/ml | 32/32 μg/ml |  |  |  |  |  | MIC (S. aureus LMG3255; Staphylococcus aureus, LMG3255, 24 h, read-out: MIC, single component): > 125 µg/mL; MIC (S. aureus LMG3264; Staphylococcus aureus, LMG3264, 24 h, read-out: MIC, single component): > 125 µg/mL; MIC (S. aureus LMG3263; Staphylococcus aureus, LMG3263, 24 h, read-out: MIC, single component): > 125 µg/mL; MIC (S. aureus LMG3328): 32 µg/mL; MIC (S. aureus LMG3258): 125 µg/mL; MIC (S. aureus LMG3266; Staphylococcus aureus, LMG3266, 24 h, read-out: MIC, single component): > 125 µg/mL; MIC (S. aureus LMG3242; Staphylococcus aureus, LMG3242, 24 h, read-out: MIC, single component): > 125 µg/mL; MIC (S. aureus LMG3314): 64 µg/mL; MIC, single antimicrobial ([1]; All three strains): >125 µg/mL; MIC ([1]; All three strains): > 125 µg/mL; MIC (MRSA ATCC 33591-lux; MRSA ATCC 33591-lux): > 125 µg/mL; MIC (MRSA USA-300; MRSA): > 125 µg/mL; MIC (MRSA 43484; MRSA): > 125 µg/mL; MIC ([2]; MRSP45, 24 h): > 1250 µg/mL |
| CC(C)=CCCC(C)=CCCC(C)=CCO [Farnesol] |  |  |  |  |  |  |  | 0.08 | 14 | 56 |  |  |  |
| CC[C@H]1OC(=O)[C@H](C)[C@@H](O[C@H]2C[C@@](C)(OC)[C@@H](O)[C@H](C)O2)[C@H](C)[C@@H](O[C@@H]2O[C@H](C)C[C@H](N(C)C)[C@H]2O)[C@](C)(O)C[C@@H](C)C(=O)[C@H](C)[C@@H](O)[C@]1(C)O [Ery, Erythromycin] | < 2.5 | < 2.5 | < 2.5 | < 2.5 | > 2500 | 16 µg/mL | 32 µg/mL |  |  |  | 62 | > 250 | MIC (S. aureus LMG3255; [3]): < 2.5 µg/mL; MIC (S. aureus LMG3264; [4]): < 2.5 µg/mL; MIC (S. aureus LMG3263; [5]): > 2500 µg/mL; MIC (S. aureus LMG3328): < 2.5 µg/mL; MIC (S. aureus LMG3258): < 2.5 µg/mL; MIC (S. aureus LMG3266; Staphylococcus aureus, LMG3266, 24 h; read-out: MIC, single component): > 2500 µg/mL; MIC (S. aureus LMG3242; Staphylococcus aureus, LMG3242, 24 h; read-out: MIC, single component): < 2.5 µg/mL; MIC (S. aureus LMG3314): < 2.5 µg/mL; MIC of the antimicrobial in comb. with GarKS ([1]; All three strains): 16 to 62 µg/mL; synergy with GarKS [1]: no synergy or only additive effects; MIC, single antimicrobial (MRSA ATCC 33591-lux; MRSA ATCC 33591-lux): >250 µg/mL; MIC (MRSA ATCC 33591-lux; MRSA ATCC 33591-lux): > 250 µg/mL; MIC (MRSA USA-300; MRSA USA-300): 31 µg/mL; MIC (MRSA 43484; MRSA 43484): 62 µg/mL |
| CN(C)[C@@H]1C(O)=C(C(N)=O)C(=O)[C@@]2(O)C(O)=C3C(=O)c4c(O)cccc4[C@@](C)(O)[C@H]3C[C@@H]12 [Tet, Tetracycline] | 0.6 | 2.4 | < 0.3 | 77 | 2.4 | 0.6 µg/mL | 0.6 µg/mL | 0.08 | 10 | 150 | 38 | 150 | MIC (S. aureus LMG3255; [3]): 2.4 µg/mL; MIC (S. aureus LMG3264; [4]): 2.4 µg/mL; MIC (S. aureus LMG3263; [5]): 2.4 µg/mL |
| C=C(NC(=O)[C@@H](NC(=O)[C@H](Cc1c[nH]cn1)NC(=O)[C@@H](NC(=O)[C@H](CO)NC(=O)[C@@H]1CS[C@@H](C)[C@H]2NC(=O)[C@H](C)NC(=O)[C@H](NC(=O)[C@H](CCCCN)NC(=O)[C@H](CCSC)NC(=O)[C@H](CC(N)=O)NC(=O)[C@@H]3CS[C@@H](C)[C@@H](NC(=O)[C@H](CCCCN)NC(=O)[C@@H]4CS[C@@H](C)[C@@H](NC(=O)[C@@H]5CSC[C@@H](NC(=O)/C(=C/C)NC(=O)[C@@H](N)[C@@H](C)CC)C(=O)N[C@@H]([C@@H](C)CC)C(=O)NC(=C)C(=O)N[C@@H](CC(C)C)C(=O)N5)C(=O)N5CCC[C@H]5C(=O)NCC(=O)N4)C(=O)NCC(=O)N[C@@H](C)C(=O)N[C@@H](CC(C)C)C(=O)N[C@@H](CCSC)C(=O)NCC(=O)N3)[C@H](C)SC[C@H](NC2=O)C(=O)N[C@@H](CC(N)=O)C(=O)N1)[C@@H](C)CC)C(C)C)C(=O)N[C@@H](CCCCN)C(=O)O [nisinZ] |  |  |  |  |  |  |  | 0.3 | 0.8 |  |  |  | MIC, single antimicrobial (MRSA ATCC 33591): >12.5 µg/mL |
| MIKKFPNPYTLAAKLTTYEINWYKQQYGRYPWERPVA [EJ97 short] |  |  |  |  |  |  |  |  |  |  |  |  | MIC, single component ([2]; 24 h): >25 µg/mL |
| CC1(C)S[C@@H]2[C@H](NC(=O)[C@H](N)c3ccccc3)C(=O)N2[C@H]1C(=O)O [Amp, Ampicillin] |  |  |  |  |  | 16 µg/mL | 16 µg/mL |  |  |  | 16 |  | MIC of the antimicrobial in comb. with GarKS ([1]; All three strains): 16 µg/mL; MIC of the component when combined ([1]; GarKS with Amp or PenG): 16 µg/mL; MIC ([1]; All three strains): > 2500 µg/mL; synergy with GarKS [1]: moderate synergy; MIC (MRSA ATCC 33591-lux): < 2500 µg/mL; MIC (MRSA USA-300; MRSA USA-300): < 2500 µg/mL; MIC (MRSA 43484; MRSA 43484): < 2500 µg/mL |
| CC(=O)O[C@H]1C[C@@]2(C)[C@@H](C[C@@H](O)[C@H]3[C@@]4(C)CC[C@@H](O)[C@@H](C)[C@@H]4CC[C@@]32C)/C1=C(\CCC=C(C)C)C(=O)O [Fusidic acid] |  |  |  |  |  |  |  | 0.15 | 0.04 | 0.6 |  | 1.25 |  |
